Data taken from patent publication US20250215029A1 (Recludix Pharma, Inc., priority 2022, published 2025).
Like-named read-outs stand apart in the source and are kept apart here.

Legend:
[1] = molecular target: T1, Recombinant STAT6 protein (STAT6 (W123-T658)) (Homo sapiens, UniProt P42226); experiment: STAT6 Fluorescence Polarization (FP) Assay; format: binding; settings: probe 5-FAM-Ap[…]-NH2 2 nM, 45-minute incubation
T1 construct: Recombinant STAT6 protein (STAT6 (W123-T658))
T1 sequence (P42226 123-658): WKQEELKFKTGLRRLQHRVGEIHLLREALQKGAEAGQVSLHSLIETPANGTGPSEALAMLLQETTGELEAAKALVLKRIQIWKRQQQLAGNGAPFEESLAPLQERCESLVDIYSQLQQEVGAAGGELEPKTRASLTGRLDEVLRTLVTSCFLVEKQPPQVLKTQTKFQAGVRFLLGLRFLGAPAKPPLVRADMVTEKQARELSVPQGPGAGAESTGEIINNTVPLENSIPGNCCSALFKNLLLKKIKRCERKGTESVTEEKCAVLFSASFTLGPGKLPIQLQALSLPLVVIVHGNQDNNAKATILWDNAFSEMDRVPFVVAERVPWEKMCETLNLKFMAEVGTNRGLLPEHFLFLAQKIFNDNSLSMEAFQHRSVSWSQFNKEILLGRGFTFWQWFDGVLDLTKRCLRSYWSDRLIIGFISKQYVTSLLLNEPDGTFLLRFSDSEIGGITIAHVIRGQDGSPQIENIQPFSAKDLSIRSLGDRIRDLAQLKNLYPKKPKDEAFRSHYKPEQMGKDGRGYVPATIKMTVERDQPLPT
Description: STAT6 Fluorescence Polarization (FP) Assay
An FP assay was developed to determine IC50 values for test substances. Recombinant STAT6 protein (STAT6 (W123-T658)) at 250 nM was combined with a fluorescently labeled, phosphotyrosine peptide probe (5-FAM-Ap[…]-NH2) at 2 nM in FP buffer (10 mM HEPES pH 7.4, 50 mM NaCl, 1 mM EDTA, 0.05% Tween 20, 2 mM DTT). 50 μL of STAT6-probe mixture was added to serial diluted compounds in black, 96-well plates (Greiner BioOne 655076) to a final concentration of 1% DMSO. Reaction components were mixed, and FP was measured after 45-minute incubation at room temperature using a Tecan Spark multimode plate reader. FP signal (mP) was plotted against the log concentration of the test substances and IC50 values were calculated by nonlinear regression analysis using GraphPad Prism software. For STAT6 FP assay, A=≤300 nM; B=>300-3000 nM; C=>3-30 μM; and D=>30 μM.

[2] = molecular target: T2, Recombinant STAT3 protein (STAT3 (G127-I722)) (Homo sapiens, UniProt P40763); experiment: STAT3 Fluorescence Polarization (FP) Assay; format: binding; settings: probe 5-FAM-GpYLPQTV-NH2 2 nM, 45-minute incubation
T2 construct: Recombinant STAT3 protein (STAT3 (G127-I722))
T2 sequence (P40763 127-722): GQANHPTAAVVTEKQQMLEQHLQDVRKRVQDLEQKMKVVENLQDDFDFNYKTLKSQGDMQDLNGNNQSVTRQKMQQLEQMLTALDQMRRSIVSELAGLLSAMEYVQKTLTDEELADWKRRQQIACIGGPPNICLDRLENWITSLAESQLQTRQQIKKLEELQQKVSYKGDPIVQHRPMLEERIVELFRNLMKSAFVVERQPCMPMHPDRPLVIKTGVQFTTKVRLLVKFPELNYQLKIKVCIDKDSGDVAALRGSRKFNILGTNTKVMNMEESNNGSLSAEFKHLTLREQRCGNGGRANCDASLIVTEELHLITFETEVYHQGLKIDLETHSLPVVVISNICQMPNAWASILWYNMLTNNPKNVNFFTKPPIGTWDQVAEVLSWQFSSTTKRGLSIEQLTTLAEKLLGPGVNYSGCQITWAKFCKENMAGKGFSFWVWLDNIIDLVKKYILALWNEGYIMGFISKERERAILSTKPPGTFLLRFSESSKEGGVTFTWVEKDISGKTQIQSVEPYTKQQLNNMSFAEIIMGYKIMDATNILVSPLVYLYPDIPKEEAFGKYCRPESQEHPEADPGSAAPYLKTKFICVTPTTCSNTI
Description: STAT3 Fluorescence Polarization (FP) Assay
An FP assay was developed to determine IC50 values for test substances. Recombinant STAT3 protein (STAT3 (G127-I722)) at 25 nM was combined with a fluorescently labeled, phosphotyrosine peptide probe (5-FAM-GpYLPQTV-NH2) at 2 nM in FP buffer (10 mM HEPES pH 7.4, 50 mM NaCl, 1 mM EDTA, 0.05% Tween 20.2 mM DTT). 50 μL of STAT3-probe mixture was added to serial diluted compounds in black, 96-well plates (Greiner BioOne 655076) to a final concentration of 1% DMSO. Reaction components were mixed, and FP was measured after 45-minute incubation at room temperature using a Tecan Spark multimode plate reader. FP signal (mP) was plotted against the log concentration of the test substances and IC50 values were calculated by nonlinear regression analysis using GraphPad Prism software. For STAT3 FP assay, A=≤100 nM; B=>100-1000 nM; C=>1-10 μM; and D=>10 μM.

[3] = STAT6 250 nM, read-out: STAT6 (FP assay IC50)
[4] = STAT3 25 nM, read-out: STAT3 (FP assay IC50)
[5] = STAT6 (W123-T658) 250 nM, read-out: STAT6 (FP assay IC50 class)
[6] = STAT3 (G127-I722) 25 nM, read-out: STAT3 (FP assay IC50 class)

SMILES | IC50 [1, 3] [nM] | IC50 [2, 4] [nM] | IC50 [1, 5] [nM] | IC50 [2, 6] [nM]
N#C[C@H]1CN(C(=O)[C@@H]2CC[C@@H]3CC[C@@H](N4CCC4)C[C@H](NC(=O)c4cc5cc(C(F)(F)P(=O)(O)O)ccc5s4)C(=O)N32)C[C@@H]1c1ccccc1 (mixture of isomers) [Compound 23, ((2-(((3S,6S,8R,10aS)-8-(azetidin-1-yl)-3-(rel- trans)-3-cyano-4-phenylpyrrolidine-1-carbonyl)-5-oxodecahydropyrrolo [1,2-a]azocin-6-yl)carbamoyl)benzo[b]thiophen-5-yl)difluoromethyl) phosphonic acid] | 300 to 3000 | 1000 to 10000 |  | 
N#C[C@H]1CN(C(=O)[C@@H]2CC[C@@H]3CCCC[C@H](NC(=O)c4ccc5ccc(C(F)(F)P(=O)(O)O)cc5c4)C(=O)N32)C[C@@H]1c1ccccc1 (mixture of isomers) [Compound 28, ((7-(((3S,6S,10aS)-3-(rel- trans)-3-cyano-4-phenylpyrrolidine-1-carbonyl)-5-oxodecahydropyrrolo [1,2-a]azocin-6-yl)carbamoyl)naphthalen-2-yl) difluoromethyl) phosphonic acid] | ≤ 300 | 1000 to 10000 |  | 
N#C[C@@H]1CN(C(=O)[C@@H]2CC[C@@H]3CCCCC[C@H](NC(=O)c4cc5cc(C(F)(F)P(=O)(O)O)ccc5s4)C(=O)N32)C[C@H]1c1ccccc1 (mixture of isomers) [Compound 74, ((2-(((3S,6S,11aS)-3-((rel- trans)-3-cyano-4-phenylpyrrolidine-1-carbonyl)-5-oxodecahydro-1H-pyrrolo[1,2-a]azonin-6-yl)carbamoyl)benzo[b]thiophen-5-yl)difluoromethyl) phosphonic acid] | ≤ 300 | 1000 to 10000 |  | 
N#CC1CN(C(=O)[C@@H]2C[C@@H](O)[C@@H]3C/C=C\C[C@H](NC(=O)c4cc5cc(C(F)(F)P(=O)(O)O)ccc5s4)C(=O)N23)CC1c1ccccc1 (mixture of isomers) [Compound 729, ((2-(((1R,3S,6S,10aS,Z)-3-((rel-trans)-3-cyano-4-phenylpyrrolidine-1-carbonyl)-1-hydroxy-5-oxo-1,2,3,5,6,7,10,10a-octahydropyrrolo[1,2-a]azocin-6-yl)carbamoyl)benzo [b]thiophen-5-yl)difluoromethyl) phosphonic acid] |  |  | ≤ 300 | 100 to 1000
O=C(NC1CCCCC2CCC(C(=O)N3CC(O)C(n4ccnn4)C3)N2C1=O)c1ccc2ccc(C(F)(F)P(=O)(O)O)cc2c1 (mixture of isomers) [Compound 871, (difluoro(7-(((3S,6S,10aS)-3-((rel-trans)-3-hydroxy-4-(1H-1,2,3-triazol-1-yl)pyrrolidine-1-carbonyl)-5-oxodecahydropyrrolo[1,2-a]azocin-6-yl)carbamoyl)naphthalen-2-yl)methyl) phosphonic acid] |  |  | 300 to 3000 | 1000 to 10000
COc1cc(C2CN(C(=O)C3CCC4CCCCC(NC(=O)c5cc6cc(C(F)(F)P(=O)(O)O)ccc6s5)C(=O)N43)CC2C#N)cc(C)n1 (mixture of isomers) [Compound 874, ((2-(((3S,6S,10aS)-3-((rel-trans)-3-cyano-4-(2-methoxy-6-methylpyridin-4-yl)pyrrolidine-1-carbonyl)-5-oxodecahydropyrrolo[1,2-a]azocin-6-yl)carbamoyl)benzo [b]thiophen-5-yl)difluoromethyl) phosphonic acid] |  |  | 300 to 3000 | 1000 to 10000
N#C[C@@H]1CN(C(=O)[C@@H]2CCC[C@@H]3CCCC[C@H](NC(=O)c4cc5cc(C(F)(F)P(=O)(O)O)ccc5s4)C(=O)N32)CC1c1ccccc1 (mixture of isomers) [Compound 63, ((2-(((4S,7S,11aS)-4-(rel-(trans)-3-cyano-4-phenylpyrrolidine-1-carbonyl)-6-oxodecahydro-2H-pyrido[1,2-a]azocin-7-yl)carbamoyl)benzo[b]thiophen-5-yl)difluoromethyl) phosphonic acid] | ≤ 300 | 100 to 1000 |  | 
N#C[C@H]1CN(C(=O)[C@@H]2CC[C@@H]3CCCCC[C@H](NC(=O)c4cc5cc(C(F)(F)P(=O)(O)O)ccc5s4)C(=O)N32)C[C@@H]1c1ccccc1 (racemic) [Compound 75, ((2-(((3S,6S,11aS)-3-(rel-(trans)-3-cyano-4-phenylpyrrolidine-1-carbonyl)-5-oxodecahydro-1H-pyrrolo[1,2-a]azonin-6-yl)carbamoyl)benzo[b]thiophen-5-yl)difluoromethyl) phosphonic acid] | ≤ 300 | 1000 to 10000 |  | 
N#C[C@H]1CN(C(=O)[C@@H]2CC[C@@H]3CCCC[C@H](NC(=O)c4cc5cc(C(F)(F)P(=O)(O)O)ccc5s4)C(=O)N32)C[C@@H]1CC1CCOCC1 (racemic) [Compound 88, ((2-(((3S,6S,10aS)-3-(rel-(trans)-3-cyano-4-((tetrahydro-2H-pyran-4-yl)methyl)pyrrolidine-1-carbonyl)-5-oxodecahydropyrrolo [1,2-a]azocin-6-yl)carbamoyl)benzo[b]thiophen-5-yl)difluoromethyl) phosphonic acid] | 300 to 3000 | 1000 to 10000 |  | 
N#C[C@H]1CN(C(=O)[C@@H]2CC[C@@H]3CCCC[C@H](NC(=O)c4cc5cc(C(F)(F)P(=O)(O)O)ccc5s4)C(=O)N32)C[C@@H]1C1CCCCC1 (racemic) [Compound 91, ((2-(((3S,6S,10aS)-3-(rel-(trans)-3-cyano-4-cyclohexyl-pyrrolidine-1-carbonyl)-5-oxodecahydropyrrolo [1,2-a]azocin-6-yl)carbamoyl)benzo[b]thiophen-5-yl)difluoromethyl) phosphonic acid] | ≤ 300 | 1000 to 10000 |  | 
N#C[C@H]1CN(C(=O)[C@@H]2CC[C@@H]3CCCC[C@H](NC(=O)c4cc5cc(C(F)(F)P(=O)(O)O)ccc5s4)C(=O)N32)C[C@@H]1c1ccc2cn[nH]c2c1 (racemic) [Compound 99, ((2-(((3S,6S,10aS)-3-(rel-(trans)-3-cyano-4-(1H-indazol-6-yl)pyrrolidine-1-carbonyl)-5-oxodecahydropyrrolo [1,2-a]azocin-6-yl)carbamoyl)benzo[b]thiophen-5-yl)difluoromethyl) phosphonic acid] | 300 to 3000 | 100 to 1000 |  | 
COc1cccc([C@H]2CN(C(=O)[C@@H]3CC[C@@H]4CCCC[C@H](NC(=O)c5cc6cc(C(F)(F)P(=O)(O)O)ccc6s5)C(=O)N43)C[C@@H]2C#N)n1 (racemic) [Compound 105, ((2-(((3S,6S,10aS)-3-(rel-(trans) 3-cyano-4-(6-methoxypyridin-2-yl)pyrrolidine-1-carbonyl)-5-oxodecahydropyrrolo [1,2-a]azocin-6-yl)carbamoyl)benzo[b]thiophen-5-yl)difluoromethyl) phosphonic acid] | ≤ 300 | 100 to 1000 |  | 
N#C[C@@H]1CN(C(=O)[C@@H]2CC[C@@H]3C[C@@H](N4CCC4)CC[C@H](NC(=O)c4cc5cc(C(F)(F)P(=O)(O)O)ccc5s4)C(=O)N32)C[C@H]1c1ccccc1 (relative stereo) [Compound 21, ((2-(((3S,6S,9S,10aR)-9-(azetidin-1-yl)-3-(rel-(trans)-3-cyano-4-phenylpyrrolidine-1-carbonyl)-5-oxodecahydropyrrolo [1,2-a]azocin-6-yl)carbamoyl)benzo[b]thiophen-5-yl)difluoromethyl) phosphonic acid] | ≤ 300 | 1000 to 10000 |  | 
